Measured values reported in PubChem BioAssay (NCI).
Values joined by “and” are separate entries in the source; they are usually repeats but may differ in a detail not shown here. Equal values may be shown once.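 Each compound was tested at five concentrations against cells in 96-well plates for 48 hours. The concentration for 50% growth inhibition is given as GI50. TGI: total growth inhibition.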 Where a SMILES comes first, the peptide text is derived from it. [ ]: non-standard residue; d: D form. Orn = NCCC[CH](N)C(=O)O

Legend:
Assay in all cases: NCI-60 cell line screen, 48 h
UACC-257 melanoma = system: UACC-257 melanoma
EKVX NSCLC = system: EKVX NSCLC
SK-MEL-5 melanoma = system: SK-MEL-5 melanoma
786-0 renal = system: 786-0 renal
HCT-116 colon = system: HCT-116 colon
HOP-92 NSCLC = system: HOP-92 NSCLC
HL-60(TB) leukemia = system: HL-60(TB) leukemia
ACHN renal = system: ACHN renal
COLO 205 colon = system: COLO 205 colon
CAKI-1 renal = system: CAKI-1 renal

| Structure (SMILES) | GI50 (UACC-257 melanoma) | TGI (UACC-257 melanoma) | GI50 (EKVX NSCLC) | TGI (EKVX NSCLC) | GI50 (SK-MEL-5 melanoma) | TGI (SK-MEL-5 melanoma) | GI50 (786-0 renal) | TGI (786-0 renal) | GI50 (HCT-116 colon) | TGI (HCT-116 colon) | GI50 (HOP-92 NSCLC) | TGI (HOP-92 NSCLC) | GI50 (HL-60(TB) leukemia) | TGI (HL-60(TB) leukemia) | GI50 (ACHN renal) | TGI (ACHN renal) | GI50 (COLO 205 colon) | TGI (COLO 205 colon) | GI50 (CAKI-1 renal) | TGI (CAKI-1 renal) |
| --- | --- | --- | --- | --- | --- | --- | --- | --- | --- | --- | --- | --- | --- | --- | --- | --- | --- | --- | --- | --- |
| O=CNc1ccc2c(c1)Cc1cc([N+](=O)[O-])ccc1-2 | 5390 nM | > 100000 nM | 657 nM | > 100000 nM | 1530 nM | > 100000 nM | 5320 nM | > 100000 nM | 1380 nM | > 100000 nM | 6970 nM | > 100000 nM | 3210 nM | > 100000 nM | 6520 nM | > 100000 nM | 2870 nM | > 100000 nM | 3290 nM | > 100000 nM |
| CCCNNC(=O)c1ccc(CNC(=O)/C=C/c2ccccc2)cc1 | 150 nM |  | 311 nM | > 100000 nM | 102 nM | 262 nM | 314 nM | > 100000 nM | 54.7 nM | 527 nM | 82.1 nM | 609 nM | 219 nM | > 100000 nM | 143 nM | 592 nM | 90.9 nM | 292 nM | 174 nM | 733 nM |
| O=CN/C=C/c1ccccc1O |  | > 100000 nM |  | > 100000 nM |  | > 100000 nM |  | > 100000 nM |  | > 100000 nM |  | > 100000 nM |  | > 100000 nM |  | > 100000 nM |  | > 100000 nM |  | > 100000 nM |
| O=C(O)C#Cc1ccc([N+](=O)[O-])cc1 |  | > 100000 nM |  | > 100000 nM |  | > 100000 nM |  | > 100000 nM |  | > 100000 nM |  | > 100000 nM |  | > 100000 nM |  | > 100000 nM |  | > 100000 nM |  | > 100000 nM |
| Cn1c(C2CC(C)(C)c3c2c2ccccc2n3C)cc2ccccc21 (centres undefined) |  | > 304000 nM |  | > 304000 nM |  | > 304000 nM |  | > 304000 nM |  | > 304000 nM |  | > 304000 nM |  | > 304000 nM |  | > 304000 nM |  | > 304000 nM |  | > 304000 nM |
| O=C(O)c1cn(C2CC2)c2cc(N3CCN(C(=O)Nc4nc(-c5ccc(Cl)cc5)cs4)CC3)c(F)cc2c1=O | 2920 nM | 8240 nM | 2970 nM | > 100000 nM | 1760 nM | 3920 nM | 2320 nM | 22500 nM | 1120 nM | > 100000 nM | 1850 nM | 7630 nM | 1470 nM | 4760 nM | 1630 nM | 22000 nM | 3320 nM | > 100000 nM | 3810 nM | > 100000 nM |
| CC(C)CC1NC(=O)C(CCCN)NC(=O)C(C(C)C)NC(=O)C2CCCN2C(=O)C(Cc2ccccc2)NC(=O)C(CC(C)C)NC(=O)C(CCCN)NC(=O)C(C(C)C)NC(=O)C2CCCN2C(=O)C(Cc2ccccc2)NC1=O (centres undefined) (cyclo(FPV[Orn]LFPV[Orn]L); configuration not given here) | 8.72 nM and 14.5 nM | 48 nM and 70.5 nM | 10.5 nM and 17.5 nM | 442 nM and 1230 nM | 7.25 nM | 19.9 nM and 22.9 nM | 45.1 nM and 50.6 nM | 460 nM and 1260 nM | 10.2 nM and 16.7 nM | 122 nM and 213 nM | 6.61 nM and 12.6 nM | 20.4 nM and 54.5 nM | 15.1 nM and 37.1 nM | 104 nM and 251 nM | 96.1 nM and 81.6 nM | 3250 nM and 2210 nM | < 3.25 nM | 4.19 nM | 564 nM and 1020 nM | 2140 nM and 7230 nM |
